The results in this text go back to ChEMBL document CHEMBL4616723, “Discovery of Antibacterials That Inhibit Bacterial RNA Polymerase Interactions with Sigma Factors” (J Med Chem, 2020).

A word on the MIC: it is the lowest concentration that inhibits growth of the organism. A lower MIC goes with a more susceptible organism.

Molecules are shown by their SMILES. Converted amounts (≈) assume the structure as drawn.

Format in all cases: functional
One experiment relates to Streptococcus pneumoniae. The experiment is described as follows: Antibacterial activity against Streptococcus pneumoniae ATCC 49619 after 20 hrs by CLSI based-broth microdilution method. Conditions: ATCC 49619, 20 h.
A further experiment concerns Klebsiella pneumoniae. Kind of experiment: Antibacterial activity against Klebsiella pneumoniae ATCC 700603 after 20 hrs by CLSI based-broth microdilution method. Conditions: ATCC 700603, 20 h. For orientation: Broth dilution looks for growth in wells or tubes with falling amounts of substance.
Another experiment relates to Acinetobacter baumannii. The experiment is described as follows: Antibacterial activity against Acinetobacter baumannii ATCC 19606 after 20 hrs by CLSI based-broth microdilution method. Conditions: ATCC 19606 = CIP 70.34 = JCM 6841, 20 h.
A further experiment relates to Pseudomonas aeruginosa. Kind of experiment: Antibacterial activity against Pseudomonas aeruginosa ATCC 27853 after 20 hrs by CLSI based-broth microdilution method. Conditions: ATCC 27853, 20 h.
The next experiment concerns Enterobacter cloacae. Kind of experiment: Antibacterial activity against Enterobacter cloacae ATCC 13047 after 20 hrs by CLSI based-broth microdilution method. Conditions: subsp. cloacae ATCC 13047, 20 h.
The subject of the next experiment is Escherichia coli. The experiment is described as follows: Antibacterial activity against Escherichia coli ATCC 25922 after 20 hrs by CLSI based-broth microdilution method. Conditions: ATCC 25922, 20 h.

Turning to `N#Cc1ccccc1NCc1ccc(Sc2ccc(Cl)c(Cl)c2)c([N+](=O)[O-])c1`, the MIC in the experiment with Streptococcus pneumoniae, in the experiment on Klebsiella pneumoniae, against Acinetobacter baumannii, against Pseudomonas aeruginosa, against Enterobacter cloacae and against Escherichia coli was greater than 256 µg/mL each time.

In the case of `O=C(O)c1ccccc1C(=O)c1ccc(Nc2ccccc2)c([N+](=O)[O-])c1`, the MIC against Streptococcus pneumoniae is 256 µg/mL (≈ 707 µM); in the experiment on Klebsiella pneumoniae it was greater than 256 µg/mL; with Acinetobacter baumannii, greater than 256 µg/mL; against Pseudomonas aeruginosa, greater than 256 µg/mL; against Enterobacter cloacae, greater than 256 µg/mL; in the experiment with Escherichia coli, greater than 256 µg/mL.

Consider `Nc1ccccc1Sc1ccc(C(=O)Nc2ccccc2C(=O)O)cc1[N+](=O)[O-]`, for which the minimum inhibitory concentration (MIC) in the experiment on Streptococcus pneumoniae is 64 µg/mL (≈ 156 µM); in the experiment on Klebsiella pneumoniae, greater than 256 µg/mL; with Acinetobacter baumannii, greater than 256 µg/mL; against Pseudomonas aeruginosa it was greater than 256 µg/mL; in the experiment with Enterobacter cloacae, greater than 256 µg/mL; against Escherichia coli it was greater than 256 µg/mL.

With `CCN(CC)C(=O)c1ccc(Sc2ccc(C(=O)c3ccccc3C(=O)O)cc2[N+](=O)[O-])c([N+](=O)[O-])c1`, the MIC against Streptococcus pneumoniae is 256 µg/mL (≈ 489 µM); in the experiment with Klebsiella pneumoniae, greater than 256 µg/mL; against Acinetobacter baumannii, greater than 256 µg/mL; in the experiment on Pseudomonas aeruginosa, greater than 256 µg/mL; against Enterobacter cloacae, greater than 256 µg/mL; against Escherichia coli it was greater than 256 µg/mL.

Regarding `O=C(O)c1cccc(NC(=O)c2ccc(Sc3ccc(Cl)c(Cl)c3)c([N+](=O)[O-])c2)c1`, the MIC in the experiment with Streptococcus pneumoniae was 256 µg/mL (≈ 553 µM); against Klebsiella pneumoniae, greater than 256 µg/mL; with Acinetobacter baumannii it was greater than 256 µg/mL; in the experiment with Pseudomonas aeruginosa, greater than 256 µg/mL; with Enterobacter cloacae, greater than 256 µg/mL; in the experiment with Escherichia coli it was greater than 256 µg/mL.

For the molecule `O=C(O)c1ccccc1C(=O)c1ccc(Nc2cccc(Cl)c2)c([N+](=O)[O-])c1`, the MIC against Streptococcus pneumoniae was 256 µg/mL (≈ 645 µM); against Klebsiella pneumoniae, greater than 256 µg/mL; in the experiment on Acinetobacter baumannii, greater than 256 µg/mL; in the experiment with Pseudomonas aeruginosa, greater than 256 µg/mL; in the experiment on Enterobacter cloacae it was greater than 256 µg/mL; against Escherichia coli, greater than 256 µg/mL.

For `O=C(O)c1cc(NCc2ccc(Sc3ccc(Cl)c(Cl)c3)c([N+](=O)[O-])c2)ccc1Cl`, the MIC against Streptococcus pneumoniae is 256 µg/mL (≈ 529 µM); with Klebsiella pneumoniae it was greater than 256 µg/mL; in the experiment on Acinetobacter baumannii it was greater than 256 µg/mL; in the experiment with Pseudomonas aeruginosa, greater than 256 µg/mL; against Enterobacter cloacae it was greater than 256 µg/mL; against Escherichia coli it was greater than 256 µg/mL.

`COc1ccc(Nc2ccc(C(=O)c3ccccc3C(=O)O)cc2[N+](=O)[O-])cc1`: the MIC in the experiment on Streptococcus pneumoniae, with Klebsiella pneumoniae, in the experiment on Acinetobacter baumannii, in the experiment with Pseudomonas aeruginosa, in the experiment on Enterobacter cloacae and with Escherichia coli was greater than 256 µg/mL each time.

Take `Nc1cc(C(=O)c2ccccc2C(=O)O)ccc1Sc1ccc(Cl)c(Cl)c1`: the MIC against Streptococcus pneumoniae is 32 µg/mL (≈ 76.5 µM); in the experiment with Klebsiella pneumoniae, greater than 256 µg/mL; against Acinetobacter baumannii, greater than 256 µg/mL; in the experiment on Pseudomonas aeruginosa it was greater than 256 µg/mL; with Enterobacter cloacae it was greater than 256 µg/mL; in the experiment on Escherichia coli, greater than 256 µg/mL.

On to `O=C(O)c1ccc(N2CCOCC2)c(NCc2ccc(Sc3ccc(Cl)c(Cl)c3)c([N+](=O)[O-])c2)c1`, for which the MIC against Streptococcus pneumoniae was 16 µg/mL (≈ 29.9 µM); against Klebsiella pneumoniae, greater than 256 µg/mL; in the experiment with Acinetobacter baumannii, greater than 256 µg/mL; against Pseudomonas aeruginosa, greater than 256 µg/mL; in the experiment on Enterobacter cloacae, greater than 256 µg/mL; against Escherichia coli, greater than 256 µg/mL.

As for `NC1CCCCC1Nc1ccc(C(=O)c2ccccc2C(=O)O)cc1[N+](=O)[O-]` (stereo not drawn), the MIC against Streptococcus pneumoniae, against Klebsiella pneumoniae, with Acinetobacter baumannii, in the experiment with Pseudomonas aeruginosa, in the experiment on Enterobacter cloacae and in the experiment on Escherichia coli was greater than 256 µg/mL in each case.

For the molecule `COc1ccccc1Sc1ccc(C(=O)c2ccccc2C(=O)O)cc1[N+](=O)[O-]`, the MIC against Streptococcus pneumoniae is 128 µg/mL (≈ 313 µM); in the experiment with Klebsiella pneumoniae, greater than 256 µg/mL; in the experiment with Acinetobacter baumannii it was greater than 256 µg/mL; against Pseudomonas aeruginosa, greater than 256 µg/mL; against Enterobacter cloacae, greater than 256 µg/mL; against Escherichia coli, greater than 256 µg/mL.

For `O=C(O)c1ccc(F)c(NCc2ccc(Sc3ccc(Cl)c(Cl)c3)c([N+](=O)[O-])c2)c1`, the MIC in the experiment on Streptococcus pneumoniae, with Klebsiella pneumoniae, in the experiment on Acinetobacter baumannii, with Pseudomonas aeruginosa, against Enterobacter cloacae and in the experiment with Escherichia coli was greater than 256 µg/mL in each case.
